Legend:
rice = assay: Test B flood test rice; format: in vivo, Oryza sativa
Summary of the method: (§1)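 Plants were grown to the 2-leaf stage before treatment with test chemical, then held in a greenhouse for twelve to sixteen days. Injury was visually rated against untreated controls on a 0–10 scale, where 0 is no effect and 10 is complete control.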

sugar beet = assay: Test B pre/postemergence sugar beet; format: in vivo, Beta vulgaris
Summary of the method: (§2)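 Response is a visual 0-to-10 score relative to untreated plants, where 0 means no effect and 10 means complete control, taken twelve to sixteen days after application. Treatments went onto soil at planting and onto foliage of 1- to 4-leaf plants, using a surfactant-containing non-phytotoxic solvent.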

giant foxtail = assay: Test B pre/postemergence giant foxtail; format: in vivo, Setaria faberii
Summary of the method: as §2

blackgrass = assay: Test B pre/postemergence blackgrass; format: in vivo, Alopecurus myosuroides
Summary of the method: as §2

morningglory = assay: Test B pre/postemergence morningglory; format: in vivo, Ipomoea hederacea
Summary of the method: as §2

bedstraw = assay: Test B pre/postemergence bedstraw; format: in vivo, Galium aparine
Summary of the method: as §2

rape = assay: Test B pre/postemergence rape; format: in vivo, Brassica napus
Summary of the method: as §2

crabgrass = assay: Test B pre/postemergence crabgrass; format: in vivo, Digitaria sanguinalis
Summary of the method: as §2

velvetleaf = assay: Test B pre/postemergence velvetleaf; format: in vivo, Abutilon theophrasti
Summary of the method: as §2

cocklebur = assay: Test B pre/postemergence cocklebur; format: in vivo, Xanthium strumarium
Summary of the method: as §2

corn = assay: Test B pre/postemergence corn; format: in vivo, Zea mays
Summary of the method: as §2

smallflower flatsedge = assay: Test B flood test smallflower flatsedge; format: in vivo, Cyperus difformis
Summary of the method: as §1

bamyardgrass = assay: Test B flood test barnyardgrass; format: in vivo, Echinochloa crus-galli
Summary of the method: as §1

pigweed = assay: Test B pre/postemergence pigweed; format: in vivo, Amaranthus retroflexus
Summary of the method: as §2

surinam grass = assay: Test B pre/postemergence surinam grass; format: in vivo, Brachiaria decumbens
Summary of the method: as §2

wild oat = assay: Test B pre/postemergence wild oat; format: in vivo, Avena fatua
Summary of the method: as §2

[1] = Postemergence, Rate 62 g/ha, scale 0 to 10, 0 is no effect, 10 is complete control
[2] = Rate 125 g/ha, Postemergence section (flood test species), scale 0 to 10, 0 no effect, 10 complete control
[3] = Rate 500 g/ha, Postemergence section of Table B, 0 to 10 scale (0 no effect, 10 complete control)
[4] = flood test, listed under Postemergence, Rate 250 g/ha, scale 0 to 10, 0 no effect, 10 complete control
[5] = Postemergence, Rate 250 g/ha, scale 0 to 10, 0 no effect, 10 complete control
[6] = Preemergence, Rate 62 g/ha, scale 0 to 10, 0 is no effect, 10 is complete control
[7] = Preemergence, Rate 125 g/ha, scale 0 to 10 (0 no effect, 10 complete control)
[8] = Preemergence, Rate 250 g/ha, scale of 0 to 10 where 0 is no effect and 10 is complete control
[9] = Preemergence, Rate 500 g/ha, scale 0 (no effect) to 10 (complete control)
[10] = Rate 125 g/ha, Postemergence, scale 0 to 10, 0 no effect, 10 complete control
[11] = Rate 500 g/ha, Postemergence, 0 to 10 scale (0 no effect, 10 complete control)

For `Cc1ccccc1-n1c(=O)on(C(=O)N(c2cc(OC(C)C)c(Cl)cc2Cl)C(C)C)c1=O` [Compound 42], the “Rice plant response rating” value (rice; [1]) was 0, the “Rice plant response rating” value (rice; [2]) was 0 and the “Rice plant response rating” value (rice; [3]) was 0. For the same molecule, the “Rice plant response rating” value (rice; [4]) was 0, the “Sugarbeets plant response rating” value (sugar beet; [1]) was 0 and the “Sugarbeets plant response rating” value (sugar beet; [5]) was 0. For the same molecule, the “Plant response rating, Sugarbeets” value (sugar beet; [6]) was 0, the “Plant response rating, Sugarbeets” value (sugar beet; [7]) was 0 and the “Plant response rating, Sugarbeets” value (sugar beet; [8]) was 0. The “Sugarbeets plant response rating” value (sugar beet; [9]) was 0, the “Sugarbeets plant response rating” value (sugar beet; [10]) was 0 and the “Giant foxtail plant response rating” value (giant foxtail; [1]) was 0. For the same molecule, the “Giant foxtail plant response rating” value (giant foxtail; [5]) was 0, the “Plant response rating, Giant foxtail” value (giant foxtail; [6]) was 0 and the “Plant response rating, Giant foxtail” value (giant foxtail; [7]) was 0. For the same molecule, the “Plant response rating, Giant foxtail” value (giant foxtail; [8]) was 0, the “Giant foxtail plant response rating” value (giant foxtail; [9]) was 0 and the “Giant foxtail plant response rating” value (giant foxtail; [10]) was 0. For the same molecule, the “Giant foxtail plant response rating” value (giant foxtail; [11]) was 0, the “Blackgrass plant response rating” value (blackgrass; [1]) was 0 and the “Blackgrass plant response rating” value (blackgrass; [5]) was 0. For the same molecule, the “Plant response rating, Blackgrass” value (blackgrass; [6]) was 0, the “Plant response rating, Blackgrass” value (blackgrass; [7]) was 0 and the “Plant response rating, Blackgrass” value (blackgrass; [8]) was 0. The “Blackgrass plant response rating” value (blackgrass; [9]) was 0, the “Blackgrass plant response rating” value (blackgrass; [10]) was 0 and the “Blackgrass plant response rating” value (blackgrass; [11]) was 0. The “Morningglory plant response rating” value (morningglory; [1]) was 0, the “Morningglory plant response rating” value (morningglory; [5]) was 0 and the “Plant response rating, Morningglory” value (morningglory; [6]) was 0. The “Plant response rating, Morningglory” value (morningglory; [7]) was 0, the “Plant response rating, Morningglory” value (morningglory; [8]) was 0 and the “Morningglory plant response rating” value (morningglory; [9]) was 0. The “Morningglory plant response rating” value (morningglory; [10]) was 0, the “Morningglory plant response rating” value (morningglory; [11]) was 1 and the “Bedstraw plant response rating” value (bedstraw; [1]) was 0. The “Bedstraw plant response rating” value (bedstraw; [5]) was 0, the “Plant response rating, Bedstraw” value (bedstraw; [6]) was 0 and the “Plant response rating, Bedstraw” value (bedstraw; [7]) was 0. For the same molecule, the “Plant response rating, Bedstraw” value (bedstraw; [8]) was 0, the “Bedstraw plant response rating” value (bedstraw; [9]) was 0 and the “Bedstraw plant response rating” value (bedstraw; [10]) was 0. For the same molecule, the “Rape plant response rating” value (rape; [1]) was 0, the “Rape plant response rating” value (rape; [5]) was 0 and the “Plant response rating, Rape” value (rape; [6]) was 0. The “Plant response rating, Rape” value (rape; [7]) was 0, the “Plant response rating, Rape” value (rape; [8]) was 0 and the “Rape plant response rating” value (rape; [9]) was 0. The “Rape plant response rating” value (rape; [10]) was 0, the “Rape plant response rating” value (rape; [11]) was 0 and the “Crabgrass plant response rating” value (crabgrass; [1]) was 0. The “Crabgrass plant response rating” value (crabgrass; [5]) was 0, the “Plant response rating, Crabgrass” value (crabgrass; [6]) was 0 and the “Plant response rating, Crabgrass” value (crabgrass; [7]) was 0. For the same molecule, the “Plant response rating, Crabgrass” value (crabgrass; [8]) was 0, the “Crabgrass plant response rating” value (crabgrass; [9]) was 0 and the “Crabgrass plant response rating” value (crabgrass; [10]) was 0. The “Crabgrass plant response rating” value (crabgrass; [11]) was 0, the “Velvetleaf plant response rating” value (velvetleaf; [1]) was 0 and the “Velvetleaf plant response rating” value (velvetleaf; [5]) was 0. The “Plant response rating, Velvetleaf” value (velvetleaf; [6]) was 0, the “Plant response rating, Velvetleaf” value (velvetleaf; [7]) was 0 and the “Plant response rating, Velvetleaf” value (velvetleaf; [8]) was 0. For the same molecule, the “Velvetleaf plant response rating” value (velvetleaf; [9]) was 0, the “Velvetleaf plant response rating” value (velvetleaf; [10]) was 0 and the “Cocklebur plant response rating” value (cocklebur; [1]) was 0. The “Cocklebur plant response rating” value (cocklebur; [5]) was 0, the “Plant response rating, Cocklebur” value (cocklebur; [6]) was 0 and the “Plant response rating, Cocklebur” value (cocklebur; [7]) was 0. The “Plant response rating, Cocklebur” value (cocklebur; [8]) was 0, the “Cocklebur plant response rating” value (cocklebur; [9]) was 0 and the “Cocklebur plant response rating” value (cocklebur; [10]) was 0. For the same molecule, the “Cocklebur plant response rating” value (cocklebur; [11]) was 0, the “Corn plant response rating” value (corn; [1]) was 0 and the “Corn plant response rating” value (corn; [5]) was 0. The “Plant response rating, Corn” value (corn; [6]) was 0, the “Plant response rating, Corn” value (corn; [7]) was 0 and the “Plant response rating, Corn” value (corn; [8]) was 0. For the same molecule, the “Corn plant response rating” value (corn; [9]) was 0, the “Corn plant response rating” value (corn; [10]) was 0 and the “Corn plant response rating” value (corn; [11]) was 0. For the same molecule, the “S. Flatsedge plant response rating” value (smallflower flatsedge; [1]) was 0, the “S. Flatsedge plant response rating” value (smallflower flatsedge; [2]) was 0 and the “S. Flatsedge plant response rating” value (smallflower flatsedge; [4]) was 0. For the same molecule, the “Barnyardgrass plant response rating” value (bamyardgrass; [1]) was 0, the “Barnyardgrass plant response rating” value (bamyardgrass; [2]) was 0 and the “Barnyardgrass plant response rating” value (bamyardgrass; [3]) was 0. For the same molecule, the “Barnyardgrass plant response rating” value (bamyardgrass; [4]) was 0, the “Redroot pigweed plant response rating” value (pigweed; [1]) was 0 and the “Redroot pigweed plant response rating” value (pigweed; [5]) was 0. The “Plant response rating, Redroot pigweed” value (pigweed; [6]) was 0, the “Plant response rating, Redroot pigweed” value (pigweed; [7]) was 0 and the “Plant response rating, Redroot pigweed” value (pigweed; [8]) was 0. The “Redroot pigweed plant response rating” value (pigweed; [9]) was 0, the “Redroot pigweed plant response rating” value (pigweed; [10]) was 0 and the “Redroot pigweed plant response rating” value (pigweed; [11]) was 2. For the same molecule, the “B. signalgrass plant response rating” value (surinam grass; [1]) was 0, the “B. signalgrass plant response rating” value (surinam grass; [5]) was 0 and the “Plant response rating, B. signalgrass” value (surinam grass; [6]) was 0. For the same molecule, the “Plant response rating, B. signalgrass” value (surinam grass; [7]) was 0, the “Plant response rating, B. signalgrass” value (surinam grass; [8]) was 0 and the “B. signalgrass plant response rating” value (surinam grass; [9]) was 0. For the same molecule, the “B. signalgrass plant response rating” value (surinam grass; [10]) was 0, the “B. signalgrass plant response rating” value (surinam grass; [11]) was 0 and the “Wild oats plant response rating” value (wild oat; [1]) was 0. For the same molecule, the “Wild oats plant response rating” value (wild oat; [5]) was 0, the “Plant response rating, Wild oats” value (wild oat; [7]) was 0 and the “Plant response rating, Wild oats” value (wild oat; [8]) was 0. The “Wild oats plant response rating” value (wild oat; [9]) was 0 and the “Wild oats plant response rating” value (wild oat; [10]) was 0.
